Assays:
SCF^β-TrCP1 = SCF^β-TrCP1 (Homo sapiens, UniProt Q9Y297); experiment: In vitro ubiquitination assay (GST-Wee1KR substrate, immunoblotting); assay type: biochemical; conditions: immunoblots quantitated by ImageJ
Protocol: Components of SCF complex (SKP1, Cul1, Rbx1, and hemagglutinin (HA)-tagged β-TrCP) were expressed in HEK293T cells. Anti-HA antibody was added into the SCF complexes expressed HEK 293T cell lysate and rotated at 4°C for 1 h. Aliquots of this mixture were added to protein G beads and rotated at 4°C for 30 min. After washing the beads in cell lysis buffer three times, the tube was centrifuged at 20,400 × g for 5 min and the supernatant was discarded. The protein on the beads was used as recombinant SCF^β-TrCP complexes. Aliquots of SCF complexes bound on the beads were then added to ubiquitination reactions (10 mM Tris pH = 7.5, 5 mM MgCl2, 1 mM DTT, 1 mM ATP, 20 mM creatine phosphate, 0.1 mg/mL creatine kinase, 5 mM NaF, 1 mM Na3VO4, 2 mg/mL ubiquitin, 0.5 μg E1 enzyme, 2 μg E2 enzyme) in a final volume of 30 µL. Compounds of 100 µM final concentration were added to reactions, and GST-Wee1KR was added as substrate 15 min later. The reaction mixtures were incubated at 37°C for 2 h and were further examined by immunoblotting.
Immunoblotting followed by in vitro ubiquitination assay was performed using anti-human Wee1A [30]. Immunoblotting in the analysis of protein degradation was performed using anti-phospho-β-catenin (Ser33/37/Thr41) antibody (1:1000, Cell Signaling Technology, Danvers, MA, USA), anti-phospho-IκBα (Ser32) (14D4), Rabbit mAb (1:1000, Cell Signaling Technology), anti-β-catenin (D10A8) (1:1000, Cell Signaling Technology), anti-IκBα antibody (1:1000, Cell Signaling Technology), and Goat polyclonal anti-rabbit IgG antibody (1:5000, Proteintech, Am Klopferspitz, Planegg-Martinsried, Germany). The transferred membrane was incubated with specific antibody, then detected using Super Signal West Pico chemiluminescent substrate (Thermo Fisher Scientific) and FUSION SOLO S (VILBER LOURMAT/MS equipment, Zi Sud torcy, Marne-la-vallee, France). The quantification of immunoblotting results was performed using ImageJ software.

[1] = test system: NF-κB transcription activity in HeLa cells; experiment: NF-κB luciferase reporter assay (pGL-4.32), TNF-α induced; assay type: cell-based
Protocol: For NF-κB transcription activity, PGL-4.32 contains five copies of the NF-κB response element, which is responsible for the transcription of the luciferase reporter gene, with pRL-SV40 as the internal control. NF-κB transcription activity was determined by firefly luciferase expression and normalized by renilla luciferase level. pGL-4.32 reporter plasmids (Promega) and pRL-sv40 renilla luciferase reporter (Promega) were co-transfected into HeLa cells using Lipofectamine 3000 reagent kit. Subsequently, 24 h after transfection, cells were cultured with the compounds of different dilutions for another 24 h. Furthermore, TNF-α was added, and the plates were cultured for another 4 h. The cells were lysed, and the luminescence was measured using the Luciferase Assay System. A minimum of three samples were taken for each sample.

SKP2 = SKP2 (Homo sapiens, UniProt Q13309); experiment: Binding to SKP2 (data not shown)
SKP2, sequence (Q13309 whole entry, species assumed, the tested form may be a part): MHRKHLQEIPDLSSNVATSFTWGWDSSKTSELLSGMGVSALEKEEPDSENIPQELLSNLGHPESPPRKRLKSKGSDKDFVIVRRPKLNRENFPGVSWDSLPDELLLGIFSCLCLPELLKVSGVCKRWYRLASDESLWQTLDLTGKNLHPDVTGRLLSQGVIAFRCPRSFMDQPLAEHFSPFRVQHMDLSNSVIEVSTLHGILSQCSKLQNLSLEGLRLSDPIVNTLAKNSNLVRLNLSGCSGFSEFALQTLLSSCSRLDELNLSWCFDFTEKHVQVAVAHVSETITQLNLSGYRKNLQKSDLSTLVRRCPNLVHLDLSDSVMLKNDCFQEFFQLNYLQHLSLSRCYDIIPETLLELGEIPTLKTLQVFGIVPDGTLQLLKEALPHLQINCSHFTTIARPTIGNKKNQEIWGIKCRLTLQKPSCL

polo-box domain of Plk1 = polo-box domain of Plk1 (Homo sapiens, UniProt P53350); experiment: Binding to polo-box domain of Plk1 (data not shown)
polo-box domain of Plk1, sequence (P53350 326-603 limits assumed): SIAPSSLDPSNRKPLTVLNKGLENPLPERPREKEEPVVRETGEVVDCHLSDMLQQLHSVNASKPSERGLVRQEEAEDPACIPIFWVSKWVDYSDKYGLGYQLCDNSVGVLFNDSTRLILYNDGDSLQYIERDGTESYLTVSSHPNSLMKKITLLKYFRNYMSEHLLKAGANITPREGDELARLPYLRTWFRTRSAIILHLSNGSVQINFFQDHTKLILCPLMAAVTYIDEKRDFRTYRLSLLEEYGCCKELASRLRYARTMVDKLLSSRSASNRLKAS

14-3-3 proteins = experiment: Binding to 14-3-3 proteins (data not shown)
Pin1 = Pin1 (Homo sapiens, UniProt Q13526); experiment: Binding to Pin1 (data not shown)
Pin1, sequence (Q13526 whole entry, species assumed): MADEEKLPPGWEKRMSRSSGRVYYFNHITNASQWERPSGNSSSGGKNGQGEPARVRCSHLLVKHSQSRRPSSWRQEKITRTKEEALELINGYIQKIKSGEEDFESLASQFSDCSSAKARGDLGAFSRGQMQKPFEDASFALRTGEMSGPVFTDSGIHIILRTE

HeLa cells = experiment: Cytotoxicity / cell death; assay type: cell-based; conditions: data not shown

SCF^β-TrCP1, sequence (Q9Y297 whole entry): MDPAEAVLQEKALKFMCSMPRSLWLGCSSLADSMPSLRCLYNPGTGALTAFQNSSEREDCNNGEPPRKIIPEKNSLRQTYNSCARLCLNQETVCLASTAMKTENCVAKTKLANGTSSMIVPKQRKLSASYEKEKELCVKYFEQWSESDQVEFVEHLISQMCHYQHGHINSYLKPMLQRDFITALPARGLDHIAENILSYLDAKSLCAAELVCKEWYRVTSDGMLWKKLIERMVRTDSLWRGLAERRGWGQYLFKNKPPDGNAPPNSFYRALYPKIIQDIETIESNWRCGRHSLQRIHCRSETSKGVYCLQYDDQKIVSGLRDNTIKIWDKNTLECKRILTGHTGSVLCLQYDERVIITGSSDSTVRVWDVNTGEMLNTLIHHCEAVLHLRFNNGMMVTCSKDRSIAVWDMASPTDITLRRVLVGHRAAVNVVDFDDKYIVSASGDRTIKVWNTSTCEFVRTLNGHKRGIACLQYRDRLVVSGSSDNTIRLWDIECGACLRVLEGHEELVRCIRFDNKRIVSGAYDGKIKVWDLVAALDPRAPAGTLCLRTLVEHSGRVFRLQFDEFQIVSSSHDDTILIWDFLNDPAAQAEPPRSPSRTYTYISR
SCF^β-TrCP1, sequence (P63208 whole entry partner): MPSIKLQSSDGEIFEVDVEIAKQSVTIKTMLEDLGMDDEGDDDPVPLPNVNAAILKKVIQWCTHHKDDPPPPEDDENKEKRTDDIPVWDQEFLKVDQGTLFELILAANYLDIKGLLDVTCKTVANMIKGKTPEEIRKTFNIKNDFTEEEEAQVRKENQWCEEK
SCF^β-TrCP1, sequence (Q13616 whole entry partner): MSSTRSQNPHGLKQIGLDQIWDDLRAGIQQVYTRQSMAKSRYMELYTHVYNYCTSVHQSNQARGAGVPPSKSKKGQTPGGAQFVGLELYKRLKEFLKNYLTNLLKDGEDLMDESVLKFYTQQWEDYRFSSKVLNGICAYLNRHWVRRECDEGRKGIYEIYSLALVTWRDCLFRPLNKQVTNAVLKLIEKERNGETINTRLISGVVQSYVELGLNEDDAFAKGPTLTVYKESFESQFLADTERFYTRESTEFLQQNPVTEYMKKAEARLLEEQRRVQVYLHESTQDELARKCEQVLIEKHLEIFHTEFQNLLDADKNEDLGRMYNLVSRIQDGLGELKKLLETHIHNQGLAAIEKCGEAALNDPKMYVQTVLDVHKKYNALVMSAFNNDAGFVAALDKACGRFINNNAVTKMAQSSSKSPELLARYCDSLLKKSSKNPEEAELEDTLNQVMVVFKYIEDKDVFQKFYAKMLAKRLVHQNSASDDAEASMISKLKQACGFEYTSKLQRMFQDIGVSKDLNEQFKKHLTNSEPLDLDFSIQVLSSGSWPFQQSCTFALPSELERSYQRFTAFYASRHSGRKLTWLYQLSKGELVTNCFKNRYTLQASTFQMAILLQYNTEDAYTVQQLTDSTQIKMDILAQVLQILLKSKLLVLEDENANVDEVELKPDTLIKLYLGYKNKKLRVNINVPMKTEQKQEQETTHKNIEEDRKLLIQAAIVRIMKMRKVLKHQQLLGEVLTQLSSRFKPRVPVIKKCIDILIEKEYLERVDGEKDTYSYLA
SCF^β-TrCP1, sequence (P62877 whole entry partner): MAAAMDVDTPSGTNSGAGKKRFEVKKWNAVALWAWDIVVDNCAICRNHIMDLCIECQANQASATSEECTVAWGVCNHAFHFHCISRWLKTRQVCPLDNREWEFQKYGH

## Cc1cc(O)c(C(=O)/C=C/c2cccc(O)c2)c(=O)o1 [NPD5943]
SCF^β-TrCP1
  IC50: 30 µM
[1]; 20 μM
  NF-κB transcription, % of that of the control group (DMSO, TNF-α): approximately 20%
[1]; 24 h compound then TNF-α 4 h
  TNF-α induced NF-κB activation of transcription: reduced NF-κB activation dose-dependently
SKP2
  binding to SKP2: did not bind to SKP2 at all
polo-box domain of Plk1
  binding to polo-box domain of Plk1: did not observe any binding
14-3-3 proteins
  binding to 14-3-3 proteins: did not observe any binding
Pin1
  binding to Pin1: did not observe any binding
HeLa cells
  non-specific cytotoxicity: cytotoxicity only at high concentration
